Measured values published in patent publication US10111866B2, “Compounds as rearranged during transfection (RET) inhibitors” (GLAXOSMITHKLINE INTELLECTUAL PROPERTY DEVELOPMENT LIMITED, priority 2015, dated 2018).

Key:
[1] = molecular target: Human RET kinase (Homo sapiens (Human), UniProt P07949); test: RET kinase enzymatic assay; format: biochemical; details: GST-RET cytoplasmic domain, HTRF readout
Procedure: RET Kinase Enzymatic Assay
Human RET kinase cytoplasmic domain (amino acids 658-1114 of accession number NP_000314.1) was expressed as an N-terminal GST-fusion protein using a baculovirus expression system. GST-RET was purified using glutathione sepharose chromatography. The RET kinase enzymatic assay was performed in a total volume of 10 uL with increasing concentrations of RET kinase inhibitor as a singlet in a 384 well format as follows: RET inhibitor compound plates are prepared by adding 100 nL of RET inhibitor at different concentrations to a 384-well plate. 5 μL/well of a 2× enzyme mix (50 mM HEPES (4-(2-hydroxyethyl)-1-piperazineethanesulfonic acid); 1 mM CHAPS (3-[(3-cholamidopropyl)dimethylammonio]-1-propane sulfonate); 0.1 mg/mL BSA (bovine serum albumin); 1 mM DTT (dithiothreitol); 0.2 nM RET kinase) was added to the 384-well plate and incubated for 30 minutes at 23° C. […] 10 μL/well of 2× stop/detection mix (50 mM HEPES; 0.1% BSA; 800 mM Potassium Fluoride; 50 mM EDTA (Ethylenediaminetetraacetic acid); 200× dilution of Europium Cryptate labeled anti-phosphotyrosine antibody; 62.5 nM Streptavidin-XL665) incubated for 1 hour at 23° C. and read on a Homogenous Time-Resolved Fluorescence reader. […]

[2] = tested on: TT cells; test: RET kinase cell-based proliferation assay (TT cells, CellTiter-Glo); details: Homo sapiens, 192 h, eight days
Procedure: RET Kinase Cell-Based Proliferation Assay
The potency of the compounds of the invention were tested for its ability to inhibit cell proliferation and cell viability. TT cells (ATCC CRL-1803), a medullary thyroid cancer cell line with constitutively activated RET kinase, were maintained in 150 cm^2 dishes in F12 Kaighn's medium, 10% fetal bovine serum, 1× Glutamax, 1× non-essential amino acids, 1× Pen/Strep antibiotics at 37° C. in 5% carbon dioxide. 6.0E3 TT cells/well in 50 μL of media were added to a 96-well cell culture plate and allowed to adhere overnight. 50 μL of serially diluted RET inhibitor compounds were added to 96-well plate containing cultured TT cells and incubated at 37° C. in 5% carbon dioxide for eight days. 50 μL of CellTiter-Glo (Promega #G-7573) was added, contents mixed for 1 minute on shaker followed by 10 minutes in the dark at 23° C. and the luminescence read by EnVision (PerkinElmer). IC50s were fitted using GraphPad Prism to a sigmoidal dose response.

Human RET kinase, sequence (P07949 658-1114): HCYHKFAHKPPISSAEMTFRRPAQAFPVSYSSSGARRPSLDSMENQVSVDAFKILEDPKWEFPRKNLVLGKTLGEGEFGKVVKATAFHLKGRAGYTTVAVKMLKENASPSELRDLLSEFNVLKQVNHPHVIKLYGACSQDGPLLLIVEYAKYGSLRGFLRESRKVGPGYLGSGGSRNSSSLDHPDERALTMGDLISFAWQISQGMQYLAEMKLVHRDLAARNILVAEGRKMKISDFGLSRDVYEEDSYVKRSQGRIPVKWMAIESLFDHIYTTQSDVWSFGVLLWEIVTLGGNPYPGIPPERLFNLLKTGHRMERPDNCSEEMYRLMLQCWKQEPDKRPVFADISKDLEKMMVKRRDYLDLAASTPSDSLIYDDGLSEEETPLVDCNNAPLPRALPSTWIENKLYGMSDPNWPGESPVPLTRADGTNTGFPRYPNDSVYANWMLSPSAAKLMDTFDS

With CCOc1cc(=O)[nH]cc1-c1ccc(CC(=O)Nc2cc(OCCN(C)C)cc(C(F)(F)F)c2)c(F)c1 [Example 2, N-(3-(2-(dimethylamino)ethoxy)-5-(trifluoromethyl)phenyl)-2-(4-(4-ethoxy-6-oxo-1,6-dihydropyridin-3-yl)-2-fluorophenyl)acetamide] the IC50 [1] was ≤ 10 nM and the IC50 [2] was 10 to 100 nM.

With CCOc1cc(=O)[nH]cc1-c1ccc(CC(=O)Nc2cc(C(=O)NCCN(C)C)cc(C(F)(F)F)c2)c(F)c1 [Example 1, N-(2-(dimethylamino)ethyl)-3-(2-(4-(4-ethoxy-6-oxo-1,6-dihydropyridin-3-yl)-2-fluorophenyl)acetamido)-5-(trifluoromethyl)benzamide] the IC50 [1] was ≤ 10 nM and the IC50 [2] was 10 to 100 nM.
